Results reported in patent publication US10568879B2 (GALAPAGOS NV, priority 2015, dated 2020).
pIC50: −log10 of the molar value. Read-outs that look alike come from different tables or passages of the source.

Columns and labels:
human neutrophils = experiment: Human neutrophil migration assay; type: cell-based; settings: for pIC50: Homo sapiens, Neutrophil, read-out: Human neutrophil migration IC50
Description: The activity of GPR84 agonists and antagonists can therefore be assayed in a human neutrophil migration assay. The human neutrophil migration assay makes use of freshly isolated human neutrophils from buffy coats that are subsequently used in a functional chemotaxis assay setup. […] After 1 h of incubation at 37° C. and 5% CO2, the number of migrated neutrophils in the lower compartment can be quantified by measuring the ATP content using ATPlite™ Luminescence Assay System. A human buffy coat suspension is diluted with an equal volume of ice cold DPBS. 20 mL of the diluted buffy coat suspension is gently mixed with 4 mL of ACD buffer (140 mM citric acid, 200 mM sodium citrate and 220 mM dextrose). Then, 12 mL of a 6% dextran/0.9% NaCl solution (15 g dextran T2000 and 2.25 g NaCl dissolved in 250 mL H2O) is added to the mixture and the samples are inverted gently up to 20 times. The total volume is transferred to a new recipient and incubated at room temperature to allow sedimentation of red blood cells. The yellowish upper fraction is then transferred to a clean centrifugation tube and centrifuged for 12 min at 1300 rpm and 4° C. After centrifugation, the supernatant is discarded and the remaining cell pellet is rapidly resuspended in 12 mL of ice-cold H2O to perform a red blood cell lysis by osmotic burst. After 20 seconds, 4 mL of ice-cold 0.6 M KCl is added to restore salt concentration. Samples are mixed carefully and centrifuged for 6 min at 1300 rpm and 4° C. The supernatant is discarded and the red blood cell lysis procedure is repeated one more time. […] A neutrophil cell suspension of 8.9×10^6 cells per mL is prepared in chemotaxis buffer and 180 μL per well is plated in a 96-well V-bottom plate. 20 μL of test compound solution in chemotaxis buffer is added to the 180 μL cell suspension. The mixture is incubated at room temperature for 30 min with intermediate gentle resuspension of the cells after 15 min. […] After 1 h at 37° C., 5% CO2 in a humidified incubator, the upper plate of the Transwell® system is gently removed. […] After incubation, 270 μL of cell lysate is then transferred onto a white 96-well plate for quantification by a luminescence plate reader. The relative luminescent signal measured is considered linearly related to the number of cells having migrated from the upper compartment into the receiver well.

GPR84 = molecular target: T1, GPR84 (Homo sapiens, UniProt Q9NQS5); experiment: GPR84 [35S]GTPγS binding assay; type: biochemical; settings: 3,3′-diindolylmethane at EC80; membranes from stable cell line over expressing GPR84
T1 construct: expressed in transfected cells
Method in brief: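 Antagonist-mode [35S]GTPγS binding on membranes from a GPR84-overexpressing stable line (GDP-preincubated), stimulated with 3,3′-diindolylmethane at EC80. Buffer 20 mM Tris pH 7.5, 5 mM MgCl2, 250 mM NaCl, saponin; 0.1 nM [35S]GTPγS, 90 min at room temperature, SPA bead read-out.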

[1] = embelin at EC80 as chemotactic agent, 1 h at 37° C.

T1 sequence (Q9NQS5 whole entry): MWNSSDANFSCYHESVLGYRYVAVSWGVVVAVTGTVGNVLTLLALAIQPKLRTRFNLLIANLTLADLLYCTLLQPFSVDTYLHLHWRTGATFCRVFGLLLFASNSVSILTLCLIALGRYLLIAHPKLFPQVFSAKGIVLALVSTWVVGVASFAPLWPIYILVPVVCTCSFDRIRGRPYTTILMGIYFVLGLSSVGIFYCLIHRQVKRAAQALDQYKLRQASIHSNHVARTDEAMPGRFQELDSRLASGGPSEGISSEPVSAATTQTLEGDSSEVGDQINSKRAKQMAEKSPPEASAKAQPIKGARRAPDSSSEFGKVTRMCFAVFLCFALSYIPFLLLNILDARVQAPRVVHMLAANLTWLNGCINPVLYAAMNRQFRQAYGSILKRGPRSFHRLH

| Structure (SMILES) | pIC50 (human neutrophils; [1]) | pIC50 (GPR84) | pIC50 (human neutrophils; 1 h) | neutrophil chemotaxis induced by GPR84 agonists (human neutrophils) |
| --- | --- | --- | --- | --- |
| COc1cc2c(cc1OC)-c1cc(=O)cc(NCC3CCCO3)n1CC2 (stereo not drawn) [Compound 4, 9,10-Dimethoxy-4-[(tetrahydro-furan-2-ylmethyl)-amino]-6,7-dihydro-pyrido[2,1-a]isoquinolin-2-one] | < 6.00 | < 6.00 |  |  |
| COc1cc2c(cc1OC)-c1c(C)c(=O)cc(NC[C@@H]3COCCO3)n1CC2 [Compound 6, 4-[[(2R)-1,4-dioxan-2-yl]methylamino]-9,10-dimethoxy-1-methyl-6,7-dihydrobenzo[a]quinolizin-2-one] | < 6.00 | 6.00 to 6.30 |  |  |
| Cc1c2n(c(NCC3CCCO3)cc1=O)CCc1cc(OCC3CC3(F)F)ccc1-2 (stereo not drawn) [Compound 7, 9-(2,2-Difluoro-cyclopropylmethoxy)-1-methyl-4-[(tetrahydro-furan-2-ylmethyl)-amino]-6,7-dihydro-pyrido[2,1-a]isoquinolin-2-one] | 6.30 to 7.00 | 7.00 to 11.00 |  |  |
| Cc1c2n(c(NCC3CCCO3)cc1=O)CCc1cc(OC3CCCO3)ccc1-2 (stereo not drawn) [Compound 9, -Methyl-4-[(tetrahydro-furan-2-ylmethyl)-amino]-9-(tetrahydro-furan-2-yloxy)-6,7-dihydro-pyrido[2,1-a]isoquinolin-2-one] | 6.30 to 7.00 | 6.30 to 7.00 |  |  |
| Cc1c2n(c(NCC3CCCCO3)cc1=O)CCc1cc(OCC(F)(F)F)ccc1-2 (stereo not drawn) [Compound 14, 1-methyl-4-(tetrahydropyran-2-ylmethylamino)-9-(2,2,2-trifluoroethoxy)-6,7-dihydrobenzo[a]quinolizin-2-one] | 7.00 to 11.00 | 7.00 to 11.00 |  |  |
| COc1ccc2c(c1OC)CCn1c(NCC3CCCCO3)cc(=O)c(C)c1-2 (stereo not drawn) [Compound 16, 8,9-dimethoxy-1-methyl-4-(tetrahydropyran-2-ylmethylamino)-6,7-dihydrobenzo[a]quinolizin-2-one] | 6.30 to 7.00 | 7.00 to 11.00 |  |  |
| COc1ccc2c(c1OC)CCn1c(NCC3COCCO3)cc(=O)cc1-2 (stereo not drawn) [Compound 19, 4-(1,4-dioxan-2-ylmethylamino)-8,9-dimethoxy-6,7-dihydrobenzo[a]quinolizin-2-one] | < 6.00 | 6.00 to 6.30 |  |  |
| COc1ccc2c(c1OC)CCn1c(NCC3CCCO3)cc(=O)cc1-2 (stereo not drawn) [Compound 20, 8,9-dimethoxy-4-(tetrahydrofuran-2-ylmethylamino)-6,7-dihydrobenzo[a]quinolizin-2-one] | < 6.00 | < 6.00 |  |  |
| COc1c(O)ccc2c1CCn1c(NCC3COCCO3)cc(=O)cc1-2 (stereo not drawn) [Compound 21, 4-(1,4-dioxan-2-ylmethylamino)-9-hydroxy-8-methoxy-6,7-dihydrobenzo[a]quinolizin-2-one] | < 6.00 | < 6.00 |  |  |
| COc1c(OCC(F)F)ccc2c1CCn1c(NCC3COCCO3)cc(=O)c(C)c1-2 (stereo not drawn) [Compound 23, 9-(2,2-Difluoro-ethoxy)-4-[([1,4]dioxan-2-ylmethyl)-amino]-8-methoxy-1-methyl-6,7-dihydro-pyrido[2,1-a]isoquinolin-2-one] |  | 7.00 to 11.00 | 7.00 to 11.00 |  |
| Cc1c2n(c(OC[C@@H]3COCCO3)cc1=O)CCc1cc(C#N)ccc1-2 [Compound 25, 4-[[(1S)-1,4-dioxan-2-yl]methoxy]-1-methyl-2-oxo-6,7-dihydrobenzo[a]quinolizine-9-carbonitrile] | < 6.00 | 6.00 to 6.30 |  |  |
| COc1ccc2c(c1OC)CCn1c(OCC3CCCO3)cc(=O)c(C)c1-2 (stereo not drawn) [Compound 28, 8,9-dimethoxy-1-methyl-4-(tetrahydrofuran-2-ylmethoxy)-6,7-dihydrobenzo[b]quinolizin-2-one] | 7.00 to 11.00 | 7.00 to 11.00 |  |  |
| Cc1c2n(c(OC[C@@H]3COCCO3)cc1=O)CCc1cc(OCC3CCOCC3)ccc1-2 [Compound 30, 4-[[(2S)-1,4-dioxan-2-yl]methoxy]-1-methyl-9-(tetrahydropyran-4-ylmethoxy)-6,7-dihydrobenzo[b]quinolizin-2-one] | 7.00 to 11.00 | 7.00 to 11.00 |  |  |
| Cc1c2n(c(NC[C@@H]3COCCO3)cc1=O)CCc1cc(OCc3ccccc3)ccc1-2 [Compound 34, 9-benzyloxy-4-[[(2R)-1,4-dioxan-2-yl]methylamino]-1-methyl-6,7-dihydrobenzo[a]quinolizin-2-one] | 7.00 to 11.00 |  |  |  |
| Cc1ccc(COc2ccc3c(c2)CCn2c(OC[C@@H]4COCCO4)cc(=O)c(C)c2-3)cn1 [Compound 52, 4-[[(2S)-1,4-dioxan-2-yl]methoxy]-1-methyl-9-[(6-methyl-3-pyridyl)methoxy]-6,7-dihydrobenzo[a]quinolizin-2-one] | 7.00 to 11.00 |  |  |  |
| Cc1c2n(c(OC[C@@H]3COCCO3)cc1=O)CCc1cc(N3CCN(C(=O)OC(C)(C)C)CC3)ccc1-2 [Compound 60, tert-butyl 4-[4-[[(2S)-1,4-dioxan-2-yl]methoxy]-1-methyl-2-oxo-6,7-dihydrobenzo[a]quinolizin-9-yl]piperazine-1-carboxylate] | 7.00 to 11.00 |  |  |  |
| Cc1c2n(c(OC[C@@H]3COCCO3)cc1=O)CCc1cc(C3CN(C(=O)OC(C)(C)C)C3)ccc1-2 [Compound 71, tert-butyl 3-[4-[[(2S)-1,4-dioxan-2-yl]methoxy]-1-methyl-2-oxo-6,7-dihydrobenzo[a]quinolizin-9-yl]azetidine-1-carboxylate] | 7.00 to 11.00 |  |  |  |
| Cc1c2n(c(OC[C@@H]3COCCO3)cc1=O)CCc1cc(OCCOC(F)(F)F)ccc1-2 [Compound 72, 4-[[(2S)-1,4-dioxan-2-yl]methoxy]-1-methyl-9-[2-(trifluoromethoxy)ethoxy]-6,7-dihydrobenzo[a]quinolizin-2-one] | 7.00 to 11.00 |  |  |  |
| CCCCCCCCCC(=O)[O-].[Na+] [sodium decanoate, reference compound] |  |  |  | induce neutrophil chemotaxis |
| CCCCCCCCCCC(=O)[O-].[Na+] [sodium undecanoate, reference compound] |  |  |  | induce neutrophil chemotaxis |

Continued, in another order:

| pIC50 (human neutrophils; [1]) | pIC50 (GPR84) | Structure (SMILES) | pIC50 (human neutrophils; 1 h) | neutrophil chemotaxis induced by GPR84 agonists (human neutrophils) |
| --- | --- | --- | --- | --- |
| 6.30 to 7.00 | 6.30 to 7.00 | Cc1c2n(c(NCC3CCCCO3)cc1=O)CCc1cc(OCC(F)F)ccc1-2 (stereo not drawn) [Compound 13, 9-(2,2-difluoroethoxy)-1-methyl-4-(tetrahydropyran-2-ylmethylamino)-6,7-dihydrobenzo[a]quinolizin-2-one] |  |  |
| 6.30 to 7.00 | 7.00 to 11.00 | COc1ccc2c(c1OC)CCn1c(NCC3COCCO3)cc(=O)c(C)c1-2 (stereo not drawn) [Compound 17, 4-(1,4-dioxan-2-ylmethylamino)-8,9-dimethoxy-1-methyl-6,7-dihydrobenzo[a]quinolizin-2-one] |  |  |
| < 6.00 | < 6.00 | COc1ccc2c(c1O)CCn1c(NCC3COCCO3)cc(=O)cc1-2 (stereo not drawn) [Compound 22, 4-(1,4-dioxan-2-ylmethylamino)-8-hydroxy-9-methoxy-6,7-dihydrobenzo[a]quinolizin-2-one] |  |  |
| 6.30 to 7.00 | 7.00 to 11.00 | COc1c(OCC(F)F)ccc2c1CCn1c(NCC3CCCO3)cc(=O)c(C)c1-2 (stereo not drawn) [Compound 24, 9-(2,2-Difluoro-ethoxy)-8-methoxy-1-methyl-4-[(tetrahydro-furan-2-ylmethyl)-amino]-6,7-dihydro-pyrido[2,1-a]isoquinolin-2-one] |  |  |
| 6.00 to 6.30 | 6.00 to 6.30 | CCc1c2n(c(NCC3CCCO3)cc1=O)CCc1cc(OCC(F)F)ccc1-2 (stereo not drawn) [Compound 26, 9-(2,2-difluoroethoxy)-1-ethyl-4-(tetrahydrofuran-2-ylmethylamino)-6,7-dihydrobenzo[a]quinolizin-2-one] |  |  |
| 6.30 to 7.00 | 6.00 to 6.30 | CCc1c2n(c(NCC3CCCO3)cc1=O)CCc1cc(OCC(F)(F)F)ccc1-2 (stereo not drawn) [Compound 27, 1-ethyl-4-(tetrahydrofuran-2-ylmethylamino)-9-(2,2,2-trifluoroethoxy)-6,7-dihydrobenzo[a]quinolizin-2-one] |  |  |
| 7.00 to 11.00 | 7.00 to 11.00 | COc1ccc2c(c1OC)CCn1c(OCC3CCCCO3)cc(=O)c(C)c1-2 (stereo not drawn) [Compound 29, 8,9-dimethoxy-1-methyl-4-(tetrahydropyran-2-ylmethoxy)-6,7-dihydrobenzo[b]quinolizin-2-one] |  |  |
| 7.00 to 11.00 |  | Cc1c2n(c(OCC3COCCO3)cc1=O)CCc1cc(OCC(F)(F)F)ccc1-2 (stereo not drawn) [Compound 90, 4-(1,4-dioxan-2-ylmethoxy)-1-methyl-9-(2,2,2-trifluoroethoxy)-6,7-dihydrobenzo[a]quinolizin-2-one] |  |  |
